One may read the Ki as a measure of affinity in units of concentration, obtained from inhibition or displacement.

In the assay the target is human IRAK4 (Homo sapiens (Human), UniProt Q9NWZ3). Put plainly: IRAK4 kinase inhibition, Transcreener fluorescence polarization ADP assay. Type of assay: biochemical. As to conditions: recombinant full-length His6-IRAK4; 125 uM ATP; 90 min; Ki computed using ATP Km 642 uM. As for the experimental part: Compounds were assayed for inhibition of human IRAK4 and IRAK1 catalytic activity using recombinant enzyme produced from insect cells. Full-length IRAK4 protein, carrying an N-terminal His6-Tag, was obtained from Life Technologies (Carlsbad, Calif., USA). The IRAK1 construct was produced internally and was comprised of IRAK1 residues Arg194 to Ser712, preceded by an NH2-terminal His6 tag and the coding sequence for glutathione-S-transferase.
Sequence of human IRAK4 (Q9NWZ3 whole entry, the tested form may be a part): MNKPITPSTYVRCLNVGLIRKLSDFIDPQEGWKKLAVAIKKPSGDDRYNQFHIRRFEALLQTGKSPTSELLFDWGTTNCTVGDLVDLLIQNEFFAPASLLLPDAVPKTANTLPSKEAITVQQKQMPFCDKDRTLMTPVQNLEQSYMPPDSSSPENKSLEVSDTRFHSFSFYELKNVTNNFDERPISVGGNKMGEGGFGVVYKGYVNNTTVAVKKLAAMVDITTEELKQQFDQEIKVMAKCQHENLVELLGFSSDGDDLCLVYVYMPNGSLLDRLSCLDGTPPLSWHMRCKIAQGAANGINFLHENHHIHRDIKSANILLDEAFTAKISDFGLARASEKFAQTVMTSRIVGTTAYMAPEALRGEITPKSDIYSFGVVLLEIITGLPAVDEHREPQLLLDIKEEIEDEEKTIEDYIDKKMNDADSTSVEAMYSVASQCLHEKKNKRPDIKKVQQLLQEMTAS
For orientation: Fluorescence polarisation rises when a labelled molecule tumbles more slowly, as on binding a larger partner.
Regarding `CC(C)(O)[C@H]1CC[C@@H](N2Cc3cc(NC(=O)c4cnn5cccnc45)c(N4CCOCC4)cc3C2=O)CC1` [Example 547, Cis-N-[2-[4-(1-Hydroxy-1-methyl-ethyl)cyclohexyl]-6-morpholino-1-oxo-isoindolin-5-yl]pyrazolo[1,5-a]pyrimidine-3-carboxamide], the Ki was 38 nM. As for `CC(C)(O)[C@@]1(C)Cc2cc(NC(=O)c3cnn4cccnc34)c(N3CCC(CO)CC3)cc2O1` [Example 355, (R)—N-(6-(4-(Hydroxymethyl)piperidin-1-yl)-2-(2-hydroxypropan-2-yl)-2-methyl-2,3-dihydrobenzofuran-5-yl)pyrazolo[1,5-a]pyrimidine-3-carboxamide], the figure is 6 nM. As for `CN(C)c1cc2c(cc1NC(=O)c1cnn3cccnc13)CN(C[C@@H](F)C(C)(C)O)C2=O` [Example 570, N-[6-(dimethylamino)-2-[(2R)-2-fluoro-3-hydroxy-3-methyl-butyl]-1-oxo-isoindolin-5-yl]pyrazolo[1,5-a]pyrimidine-3-carboxamide], the figure is 0.63 nM; as for `O=C(Nc1cc2c(cc1N1CCC(CO)CC1)O[C@@](CO)(C(F)(F)F)C2)c1cnn2cccnc12` [Example 317, (S)-N-(2-(hydroxymethyl)-6-(4-(hydroxymethyl)piperidin-1-yl)-2-(trifluoromethyl)-2,3-dihydrobenzofuran-5-yl)pyrazolo[1,5-a]pyrimidine-3-carboxamide], 2.4 nM.

For `CC1(C)Cc2cc(NC(=O)c3cnn4cccnc34)c(N3CCC(C(N)C(F)(F)F)CC3)cc2O1` (stereo not shown) [Example 24, N-[6-[4-(1-Amino-2,2,2-trifluoro-ethyl)-1-piperidyl]-2,2-dimethyl-3H-benzofuran-5-yl]pyrazolo[1,5-a]pyrimidine-3-carboxamide], the Ki was 2.9 nM. For “N-[(2S)-6-[4-(2,2-difluoroethyl)piperazin-1-yl]-2-(hydroxymethyl)-2-methyl-3H-benzofuran-5-yl]-6-fluoro-pyrazolo[1,5-a]pyrimidine-3-carboxamide [Example 495]”, the inhibition constant (Ki) was 17 nM. As for `CC1(C)Cc2cc(NC(=O)c3cnn4cccnc34)c(N3CCNCC3)cc2O1` [Example 533, N-(2,2-dimethyl-6-piperazin-1-yl-3H-benzofuran-5-yl)pyrazolo[1,5-a]pyrimidine-3-carboxamide], the figure is 13 nM. Regarding `C[C@]1(CO)Cc2cc(NC(=O)c3cnn4cc(Cl)cnc34)c(N3CCOCC3)cc2O1` (single isomer, unassigned) [Example 166], the Ki was found to be 18 nM. With `CC1(C)Cc2cc(NC(=O)c3cnn4cccnc34)c(N3CCC4(COC4)C3)cc2O1` [Example 107, N-(2,2-dimethyl-6-(2-oxa-6-azaspiro[3.4]octan-6-yl)-2,3-dihydrobenzofuran-5-yl)pyrazolo[1,5-a]pyrimidine-3-carboxamide], the Ki stood at 79 nM. As for `O=C(Nc1cc2c(cc1N1CCOCC1)O[C@](CO)(C(F)(F)F)C2)c1cnn2cccnc12` [Example 153, (R)—N-(2-(hydroxymethyl)-6-morpholino-2-(trifluoromethyl)-2,3-dihydrobenzofuran-5-yl)pyrazolo[1,5-a]pyrimidine-3-carboxamide], the figure is 14 nM. As for `CN(C)C(=O)[C@@]1(C)Cc2cc(NC(=O)c3cnn4cccnc34)c(N3CCOCC3)cc2O1` [Example 439, (R)—N-(2-(dimethylcarbamoyl)-2-methyl-6-morpholino-2,3-dihydrobenzofuran-5-yl)pyrazolo[1,5-a]pyrimidine-3-carboxamide], the figure is 34 nM; as for `C[C@@]1(CO)Cc2cc(NC(=O)c3cnn4cccnc34)c(N3CCN(CC(F)F)CC3)cc2O1` [Example 99, N-[(2S)-6-[4-(2,2-difluoroethyl)piperazin-1-yl]-2-(hydroxymethyl)-2-methyl-3H-benzofuran-5-yl]pyrazolo[1,5-a]pyrimidine-3-carboxamide], 3.3 nM. Consider `CC1(C)Cc2cc(NC(=O)c3cnn4cccnc34)c(O[C@H]3CC[C@@H](O)CC3)cc2O1` [Example 64, Cis-N-[6-(4-hydroxycyclohexoxy)-2,2-dimethyl-3H-benzofuran-5-yl]pyrazolo[1,5-a]pyrimidine-3-carboxamide], for which the Ki was found to be 8.7 nM.

Turning to `CC(CC(C)(C)O)N1Cc2cc(NC(=O)c3cnn4cccnc34)c(N3CCOCC3)cc2C1=O` (stereo in doubt) [Example 544, N-[2-[(1S)-3-hydroxy-1,3-dimethyl-butyl]-6-morpholino-1-oxo-isoindolin-5-yl]pyrazolo[1,5-a]pyrimidine-3-carboxamide], the inhibition constant (Ki) amounted to 13 nM. As for `C[C@]1(O)CCCN(c2cc3c(cc2NC(=O)c2cnn4cccnc24)C[C@@](C)(CO)O3)CC1` [Example 332, N-((S)-6-((S)-4-hydroxy-4-methylazepan-1-yl)-2-(hydroxymethyl)-2-methyl-2,3-dihydrobenzofuran-5-yl)pyrazolo[1,5-a]pyrimidine-3-carboxamide], the figure is 6 nM; as for `CC1(C)Cc2cc(NC(=O)c3cnn4cccnc34)c(N3CC4CC(F)(F)C4C3)cc2O1` (stereo not shown) [Example 199, N-(6-(6,6-difluoro-3-azabicyclo[3.2.0]heptan-3-yl)-2,2-dimethyl-2,3-dihydrobenzofuran-5-yl)pyrazolo[1,5-a]pyrimidine-3-carboxamide], 170 nM; as for `CC1(C)Cc2cc(NC(=O)c3cnn4cccnc34)c(OC[C@@H]3[C@H]4CN(CC(F)F)C[C@@H]34)cc2O1` [Example 294, N-(6-(((1R,5S,6R)-3-(2,2-difluoroethyl)-3-azabicyclo[3.1.0]hexan-6-yl)methoxy)-2,2-dimethyl-2,3-dihydrobenzofuran-5-yl)pyrazolo[1,5-a]pyrimidine-3-carboxamide], 14 nM. As for `CC1(C)Cc2cc(NC(=O)c3cnn4cccnc34)c(N3CCC(F)(F)C3)cc2O1` [Example 217, N-(6-(3,3-difluoropyrrolidin-1-yl)-2,2-dimethyl-2,3-dihydrobenzofuran-5-yl)pyrazolo[1,5-a]pyrimidine-3-carboxamide], the figure is 15 nM. As for `CC(C)(O)[C@H](F)CN1Cc2cc(NC(=O)c3cnn4cccnc34)c(N3CCC3)cc2C1=O` [Example 563, N-[6-(azetidin-1-yl)-2-[(2R)-2-fluoro-3-hydroxy-3-methyl-butyl]-1-oxo-isoindolin-5-yl]pyrazolo[1,5-a]pyrimidine-3-carboxamide], the figure is 33 nM.

Turning to `CC(C)C1(C)Cc2cc(NC(=O)c3cnn4cccnc34)c(N3CCOCC3)cc2O1` (stereo not shown) [Example 150, N-(2-Isopropyl-2-methyl-6-morpholino-2,3-dihydrobenzofuran-5-yl)pyrazolo[1,5-a]pyrimidine-3-carboxamide], the inhibition constant Ki was 89 nM.

Consider `O=C(Nc1cc2c(cc1N1CCOCC1)C(=O)N([C@H]1CCC[C@@H]1CO)C2)c1cnn2cccnc12` [Example 566, N-(2-((1S,2S)-2-(hydroxymethyl)cyclopentyl)-6-morpholino-1-oxoisoindolin-5-yl)pyrazolo[1,5-a]pyrimidine-3-carboxamide], for which the Ki worked out at 8 nM. As for `C[C@]1(CO)Cc2cc(NC(=O)c3cnn4cc(Cl)cnc34)c(N3CCC(CO)CC3)cc2O1` [Example 163, (R)-6-Chloro-N-(2-(hydroxymethyl)-6-(4-(hydroxymethyl)piperidin-1-yl)-2-methyl-2,3-dihydrobenzofuran-5-yl)pyrazolo[1,5-a]pyrimidine-3-carboxamide], the figure is 3.9 nM.

Values taken from US10988478B1, “Pyrazolo[1,5a]pyrimidine derivatives as IRAK4 modulators” (Genentech, Inc., priority 2015, dated 2021).
